In US20230173042A1, “METHODS OF TREATMENT WITH ASPARAGINASE” (JAZZ PHARMACEUTICALS IRELAND LTD., priority 2017, published 2023):

Experiments:
Assay type in all cases: cell-based
DB = experiment: Combination (synergy) cell proliferation assay with pegcrisantaspase; settings: anti-cancer agent in combination with pegcrisantaspase; DB (DLBCL)
Procedure: (§1) Plate preparation. The stocks of the mixtures and single agents were diluted in DMSO or 0.9% sodium chloride to generate a 7-points dose-response series. After further 31.6 times dilution in 20 mM sterile Hepes buffer pH 7.4 (reference compounds) or medium (pegcrisantaspase), 5 μl of pegcrisantaspase solution, and 5 μl of reference compound was added to 40 μl pre-plated cells in duplicate in a 384-well assay plate. The final DMSO concentration during incubation was 0.4% in all wells.
(§2) Cell proliferation assay. A cell assay stock was thawed and diluted in appropriate medium and dispensed in a 384-well plate, depending on the cell line used, at a concentration of 800-3200 cells per well in […]: i.e., DB: 800 cells per well; RL: 1000 cells per well; MV-4-11: 1600 cells per well; KG-1, HL-60 and HT 3200 cells per well. For each used cell line the cell density was optimized previously. The margins of the plate were filled with phosphate-buffered saline. Plated cells were incubated in a humidified atmosphere of 5% CO2 at 37° C. After 24 hours, 5 μl of pegcrisantaspase solution, and 5 μl of reference compound was added, and plates were further incubated for another 72 hours. After 72 hours, plates were cooled in 30 minutes to room temperature and 25 μl of ATPlite 1Step™ (PerkinElmer) solution was added to each well, and subsequently shaken for 2 minutes. After 5 minutes of incubation in the dark at room temperature, the luminescence was recorded on an Envision multimode reader (PerkinElmer).
(§3) Controls: t=0 signal. On a parallel plate, 40 μl cells were dispensed in quadruplicate and incubated in a humidified atmosphere of 5% CO2 at 37° C. After 24 hours, plates were cooled to room temperature in 30 minutes. 5 μl DMSO-containing Hepes buffer, 5 μl 0.9% sodium chloride-containing medium and 25 μl ATPlite 1Step™ solution were added and subsequently mixed for 2 minutes. Luminescence was measured after 10 minute incubation (=luminescencet=0) in the dark.
(§4) Cell growth control. The cellular doubling times of all cell lines are calculated from the t=0 hours and t=end growth signals of the untreated cells. If the doubling time is out of specification (0.5-2.0 times deviating from historic average) the assay is invalidated.
(§5) Maximum signals. On each 384-well plate, the maximum luminescence was recorded after incubation for 72 hours without compound in the presence of 0.4% DMSO. All equivalent wells (usually 14) were averaged. This average is defined as: luminescenceuntreated,t=72h. Dose response curves. Accurate single agent IC50s are needed for combination analysis. For each single agent its dose-response signal was fitted by a 4-parameter logistics curve using XL-fit 5 (IDBS software):
(§6) luminescence=bottom+(top-bottom)/(1+10^(logIC50−log[cpd])−hill))
(§7) [cpd] is the compound concentration tested. hill is the Hill-coefficient. Bottom and top are the asymptotic minimum and maximum of the curve. Combination Index (CI) determination. The CI is one of the most widely used quantitative indications of synergy. The CI evaluates the concentrations needed to achieve a fixed-effect. A CI of below 1 indicates synergy.
(§8) CI is defined for a certain percentage cell viability (V), which is the signal related to a non-exposed control: V=100%×luminescencetreated,t=72h/luminescenceuntreated,t=72h. The concentrations of the two compounds cpd1 and cpd2 needed to reach a certain percentage cell viability V in combination are then compared to the concentrations needed as single agents:
(§9) IC50,cpd1 would signify the IC50 of cpd1 alone. The CI is labelled by %-effect, to follow conventions, so CI75 signifies the CI at 25% viability Curve shift analysis. This analysis provides a visual confirmation of synergy^1. The concentrations of the mixtures of compounds 1 and 2 (cpd1 and cpd2), and the single agents, were expressed in terms of IC50 equivalents (in ‘units’ of IC50):
(§10) The dose-response signal was fitted by a 4-parameter logistics curve using XL-fit 5 (IDBS software)

HL-60 cell line = experiment: as above; settings: for conclusion (synergy): anti-cancer agent in combination with pegcrisantaspase, HL-60 (AML)
Procedure: as §1, §2, §3, §4, §5, §6, §7, §8, §9, §10

HT = experiment: as above; settings: anti-cancer agent in combination with pegcrisantaspase; HT (DLBCL)
Procedure: as §1, §2, §3, §4, §5, §6, §7, §8, §9, §10

KG-1 = experiment: as above; settings: anti-cancer agent in combination with pegcrisantaspase; KG-1 (AML)
Procedure: as §1, §2, §3, §4, §5, §6, §7, §8, §9, §10

RL = experiment: as above; settings: anti-cancer agent in combination with pegcrisantaspase; RL (DLBCL)
Procedure: as §1, §2, §3, §4, §5, §6, §7, §8, §9, §10

DLBCL = experiment: SynergyScreen of Pegcrisantaspase or Oncaspar with standard of care agents; settings: agent combined with Pegcrisantaspase (FIG. 13A) or Oncaspar (FIG. 13B)
Excerpt: (§11) The special volcano plot of FIG. 9 relates compound sensitivity (as measured by ^10logIC50) to the presence of cancer hotspot mutations. […] The hotspot mutations were derived from statistical analyses of the recurrence patterns of mutations and copy number alterations in patients through separate studies. Axes and statistical analyses are identical to the volcano plot of FIG. 8. The cutoff p-level for significance is 0.32. […] Effect20 For determination of the effect of the compound on the activity of other anti-cancer agents in SynergyScreen™ experiments, a low, fixed concentration is used, corresponding to the concentration at which cell growth is inhibited by 20%. This concentration is determined using the dose-response curves of the single compounds. The concentration is the value on the x-as, corresponding to 80% viability of untreated at the y-axis.
(§12) See the tables depicted in FIG. 13A-FIG. 13B. Grey shading indicates synergistic activity. Light grey shading indicates one experiment and dark grey indicates two experiments. […] Example 5: mPEG-r-crisantaspase conjugates (Pegcrisantaspases) was tested in combination with ABT-737 against HL-60 cell line.

AML = experiment: as above; settings: agent combined with Pegcrisantaspase (FIG. 13A) or Oncaspar (FIG. 13B)
Excerpt: as §11, §12

various cell lines = experiment: Pegcrisantaspase in combination with other compounds (Example 4, FIG. 2); settings: compound in combination with Pegcrisantaspase

Row | SMILES | conclusion (synergy) (DB) | conclusion (synergy) (HL-60 cell line) | conclusion (synergy) (KG-1) | conclusion (synergy) (RL) | effect in DLBCL when used with Pegcrisantaspase or Oncaspar (DLBCL) | effect in AML when used with Pegcrisantaspase or Oncaspar (AML) | also measured
1 | CC1(C)CCC(CN2CCN(c3ccc(C(=O)NS(=O)(=O)c4ccc(NCC5CCOCC5)c([N+](=O)[O-])c4)c(Oc4cnc5[nH]ccc5c4)c3)CC2)=C(c2ccc(Cl)cc2)C1 [venetoclax] | synergy (CI < 1.0: synergy) | strong synergy (CI < 0.3: strong synergy) | strong synergy (CI < 0.3: strong synergy) | synergy (CI < 1.0: synergy) |  |  | conclusion (synergy) (HT): no synergy (CI = 1.0: no synergy)
2 | CC[C@]1(O)C[C@H]2CN(CCc3c([nH]c4ccccc34)[C@@](C(=O)OC)(c3cc4c(cc3OC)N(C=O)[C@H]3[C@@](O)(C(=O)OC)[C@H](OC(C)=O)[C@]5(CC)C=CCN6CC[C@]43[C@@H]65)C2)C1 [vincristine] |  |  |  |  | increased effect |  | 
3 | O=C(Cc1cccc(OC(F)(F)F)c1)Nc1ccc(CCCCc2nnc(NC(=O)Cc3ccccn3)s2)nn1 [CB-839] |  |  |  |  | increased effect |  | 
4 | COc1cccc2c1C(=O)c1c(O)c3c(c(O)c1C2=O)C[C@@](O)(C(C)=O)C[C@@H]3O[C@H]1C[C@H](N)[C@H](O)[C@H](C)O1 [daunorubicin] |  |  |  |  |  | increased effect | 
5 | C[C@]12C=CC(=O)C=C1CC[C@@H]1[C@@H]2[C@@H](O)C[C@@]2(C)[C@H]1CC[C@]2(O)C(=O)CO [prednisolone] | no synergy (CI = 1.0: no synergy) |  |  | synergy (CI < 1.0: synergy) | increased effect |  | 
6 | CO[C@H]1C[C@@H]2CC[C@@H](C)[C@@](O)(O2)C(=O)C(=O)N2CCCC[C@H]2C(=O)O[C@H]([C@H](C)C[C@@H]2CC[C@@H](OCCO)[C@H](OC)C2)CC(=O)[C@H](C)/C=C(\C)[C@@H](O)[C@@H](OC)C(=O)[C@H](C)C[C@H](C)/C=C/C=C/C=C/1C [everolimus] |  |  |  |  | increased effect |  | 
7 | CC(C)C[C@H](NC(=O)[C@H](CCc1ccccc1)NC(=O)CN1CCOCC1)C(=O)N[C@@H](Cc1ccccc1)C(=O)N[C@@H](CC(C)C)C(=O)[C@@]1(C)CO1 [carfilzomib] | synergy (CI < 1.0: synergy) | antagonism | synergy (CI < 1.0: synergy) | synergy (CI < 1.0: synergy) | increased effect | increased effect | conclusion (synergy) (HT): no synergy/antagonism
8 | Cn1c(=O)n(-c2ccc(C(C)(C)C#N)cc2)c2c3cc(-c4cnc5ccccc5c4)ccc3ncc21 [dactolisib] |  | synergy (CI < 1.0: synergy) | strong synergy (CI < 0.3: strong synergy) |  | increased effect | increased effect | 
9 | CC(C)C[C@H](NC(=O)[C@H](Cc1ccccc1)NC(=O)c1cnccn1)B(O)O [bortezomib] |  |  |  |  | increased effect | increased effect | 
10 | CN(C)CC[C@H](CSc1ccccc1)Nc1ccc(S(=O)(=O)NC(=O)c2ccc(N3CCN(Cc4ccccc4-c4ccc(Cl)cc4)CC3)cc2)cc1[N+](=O)[O-] [ABT-737] | synergy (CI < 1.0: synergy) | strong synergy (CI < 0.3: strong synergy) | strong synergy (CI < 0.3: strong synergy) | synergy (CI < 1.0: synergy) | increased effect | increased effect | IC50 (HL-60 cell line; Homo sapiens, single agents, dose-response curves of FIG. 3, HL-60): 0.835 µM; Emax (HL-60 cell line; Homo sapiens, single agents, dose-response curves of FIG. 3, HL-60, read-out: maximal effect): 67%; IC50 (HL-60 cell line; Homo sapiens, therapeutic as single agent, HL-60, 72 hours): 1.21 µM; conclusion (synergy) (HT): synergy (CI < 1.0: synergy); potentiation of the effect by Pegcrisantaspase (various cell lines): synergy
11 | Nc1ccn([C@@H]2O[C@H](CO)[C@@H](O)[C@@H]2O)c(=O)n1 [cytarabine] |  |  |  |  |  | increased effect | potentiation of the effect by Pegcrisantaspase (various cell lines): synergy
